Data from US12685728B2, “Anti-vertigo compound and pharmaceutical compositions thereof” (Amneal Pharmaceuticals LLC, priority 2020, dated 2026).

Key:
[1] = system: patients with Peripheral vertigo; assay: Open label, active comparator controlled clinical trial: MVS score (severity of vertigo symptoms); format: in vivo, human
Text: The MVS score, a 12-item composite score to measure the severity of vertigo symptoms, is defined as the mean intensity of 6 (unprovoked) vertigo symptoms (dysstasia and walking unsteadiness, staggering, rotary sensation, tendency to fall, lift sensation, blackout) and vertigo in consequence of 6 triggering factors [change of position (lying), bowing, getting up, driving by car/train, head movements (inclination, twist), eye movement]. The intensity of each of the 12 single symptoms is rated by the patients by means of a 5-point VAS (0=not present, 1=moderate, 2=medium, 3=strong, 4=very strong). A mean MVS serving as a measure of vertigo intensity, will be calculated by adding the scores on all 12 vertigo symptoms and dividing by 12. The scale is rated by patients directly.
(§1) The current study was designed as an open label, two-treatment arm, active comparator controlled, Clinical trial in patients with Peripheral vertigo. This study involved a screening phase, randomization and treatment phase as mentioned below: • Screening phase (Visit 1): −14 to −1 day • Baseline visit and day of randomization (Visit 2): Day 0/1 • Treatment phase: Day 1 to Day 28 • End of treatment (Visit 4): Day 29±2 days
(§2) Patients with Peripheral vertigo, meeting the mentioned eligibility criteria were identified and shortlisted patients underwent screening within 14 days prior to randomization. A total of 16 patients were randomized in the ratio of 3:1 to receive the test and active comparator products (12 patients received test product and 4 patients received active comparator product). Test product was consumed as 20 mg Levocloperastine orally three times a day for 28 days. Active comparator (standard of care) was consumed by the patients as per the investigator's sole discretion and medical judgement. The standard of care treatment included Betahistine 16 mg tablets three times daily OR Betahistine 16 mg tablets three times daily plus Acetazolamide 125 mg tablets two time daily OR Cinnarizine 25 mg tablets three times daily which was given to patient.
MVS Score: Mean change in MVS score from baseline score was compared between two treatment arms.

[2] = system: patients with Peripheral vertigo; assay: Same clinical trial: composite score of vegetative concomitant symptoms (nausea, vomiting, sweating, tachycardia), 5-point VAS; format: in vivo, human
Text: as §1, §2
Additionally, mean change in composite score of vegetative concomitant symptoms from baseline score was compared between two treatment arms. The absolute data and mean changes from baseline data are presented below in Table 2.

[3] = system: patients with Peripheral vertigo; assay: Same clinical trial: tolerability; format: in vivo, human; settings: 20 mg orally three times a day for 28 days
Text: as §1, §2

[4] = doses up to 450-fold higher than the therapeutic doses; cited from earlier work
[5] = 20 mg orally three times a day for 28 days
[6] = 7 days after treatment onset [Interim visit: Day 7 + 3]
[7] = 28 days after treatment onset [end of treatment: Day 29 ± 2]

Clc1ccc([C@@H](OCCN2CCCCC2)c2ccccc2)cc1 (racemic) [Levocloperastine]
Efficacy on primary efficacy endpoint MVS score versus standard of care [1, 5]: equally efficacious in comparison to standard of care treatment
MVS Score, Change from baseline, Mean ± SD ([1]; A/28 Days [Day 29 ± 2]): −1.1 ± 0.45
MVS Score, Mean ± SD ([1]; A/28 Days [Day 29 ± 2]): 1.1 ± 0.58
MVS Score, Change as % ([1]; A/28 Days [Day 29 ± 2] vs baseline): −50.00%
MVS Score, Mean ± SD ([1]; Baseline (Day 0/1)): 2.2 ± 0.29
MVS Score, Change from baseline, Mean ± SD ([1]; Interim visit [Day 7 + 3]): −0.7 ± 0.33
MVS Score, Mean ± SD ([1]; Interim visit [Day 7 + 3]): 1.5 ± 0.49
MVS Score, Change as % ([1]; Interim visit [Day 7 + 3] vs baseline): -31.8%
Alleviation of vegetative concomitant symptoms versus standard of care [2, 5]: statistically better in alleviating the vegetative concomitant symptoms than the standard of care treatment
Score of vegetative concomitant symptoms, Absolute data, Mean ± SD [2, 6]: 0.6 ± 0.73
Score of vegetative concomitant symptoms, Change as % [2, 6]: −46.15%
Score of vegetative concomitant symptoms, Change from baseline, Mean ± SD [2, 6]: −0.6 ± 0.81
Score of vegetative concomitant symptoms, Absolute data, Mean ± SD [2, 7]: 0.2 ± 0.47
Score of vegetative concomitant symptoms, Change as % [2, 7]: −84.62%
Score of vegetative concomitant symptoms, Change from baseline, Mean ± SD [2, 7]: −1.1 ± 0.98
Score of vegetative concomitant symptoms, Absolute data, Mean ± SD ([2]; Baseline): 1.3 ± 1.05
Duration of treatment for comparable improvement in vegetative concomitant symptoms severity ([2]; human, in vivo): about 7 days
Tolerability [3]: well tolerability in all patients
Sedation [4]: did not induce any clinically relevant sedation
